Assay results from publication PMC10121968, “Fosgonimeton, a Novel Positive Modulator of the HGF/MET System, Promotes Neurotrophic and Procognitive Effects in Models of Dementia” (Neurotherapeutics, 2022).
Non-standard residues stand in square brackets, D forms with d. Residues, ends and D or L forms follow the SMILES beside them. *: point of attachment. pY = N[C@@H](Cc1ccc(OP(=O)(O)O)cc1)C(=O)O; Hexanoyl = CCCCCC(=O)*; Ahx = NCCCCCC(=O)O

Key:
[1] = Fosgonimeton solubility (filtration/HPLC in PBS); assay type: physicochemical; conditions: osmolarity-corrected PBS
Procedure: Fosgonimeton solubility studies were contracted to GVK Biosciences, Hyderabad, India. Stocks of fosgonimeton were prepared in duplicate at several concentrations in osmolarity-corrected PBS and were vortexed to dissolve into solution. The solutions were filtered through a 0.45-µm filter followed by a 0.22-µm filter to remove insoluble particulates. Pre- and postfiltration aliquots were collected, and their concentration was determined via high-performance liquid chromatography.

[2] = system: LPS-induced neuroinflammatory mouse model; experiment: LPS-induced cognitive impairment, T-maze spontaneous alternation; assay type: in vivo; conditions: 14 days
Procedure: All animal manipulations were conducted in accordance with the European Directive 2010/63/UE published in the French decree 2013–118 of February 1, 2013, and approved by an independent government-accredited ethics committee (CEEA 35, NEUROFIT, France). Animals for the study consisted of 90 four- to five-week-old CD-1 mice (Janvier, Le Genest St Isle, France). Mice were group-housed and maintained in a room with controlled temperature (21–22 °C) and reversed 12/12 light/dark cycle. The animals had access to food and water ad libitum.
Mice were sorted into the following experimental groups: saline + vehicle (control), LPS + vehicle (LPS), LPS + 0.1 mg/kg memantine, and LPS + fosgonimeton at 0.125, 0.25, 0.5, 1, or 1.25 mg/kg (LPS + fosgo). On day 0 of the study, all groups received either a single intraperitoneal injection of saline or LPS (0.25 mg/kg). During days 1–14, animals received memantine or fosgonimeton treatment once daily. On day 14, 60 min after the last dosing with test compounds or vehicle, mice were assessed for performance on the T-maze spontaneous alternation task.
The T-maze apparatus was made of gray Plexiglas with a main stem (55 cm × 10 cm × 20 cm) and 2 arms (30 cm × 10 cm × 20 cm) positioned at a 90° angle relative to the main stem. A start box (15 cm × 10 cm) was separated from the main stem by a guillotine door. Horizontal doors were also provided to close specific arms during the “forced-choice” alternation task.
The experimental protocol consisted of a single session, which started with 1 forced-choice trial, followed by 14 “free-choice” trials. In the forced-choice trial, the animal was confined for 5 s in the start arm and was then released while either the left or the right goal arm was blocked by a horizontal door. Animals were allowed to explore the maze, eventually entering the open goal arm and afterward returning to the start position. […] The animal was considered to have entered an arm if it placed all 4 paws in the arm. The session was terminated and the animal was removed from the maze after 14 free-choice trials were performed or 10 min elapsed, whichever occurred first. The apparatus was cleaned between each animal run using 70% ethanol. During the trials, animal handling and the visibility of the operator were controlled to minimize interference during testing.
The percentage of alternations over the 14 free-choice trials was determined for each mouse and was used as an index of working memory performance. This percentage was defined as entry into a different goal arm of the T maze over successive trials (e.g., left–right–left–right) and was calculated using the formula: %Alternations=Number of Alternations/14×100
Additionally, percentage of recovery was calculated by normalizing the control group to 100% and the LPS group to 0% and calculating the respective relative response for each individual animal, as follows: %Recovery=(Individual%alternation-meanLPS%alternation)/(Meancontrol%alternation-meanLPS%alternation)
Data were assessed for normality (Shapiro–Wilk) and homoscedasticity (Brown-Forsythe). One-way ANOVA was performed on the data for spontaneous alternations. Dunnett multiple comparison test was used for post hoc pairwise comparisons with the LPS group. The Kruskal–Wallis test was used for percentage of recovery with Dunn’s multiple comparison post hoc test. A value of p < 0.05 was considered to represent a statistically significant difference.

[3] = Fosgonimeton CNS distribution in rats; assay type: in vivo, rat; conditions: 12 mg/kg fosgonimeton SC, all brain regions
Procedure: Three male Sprague Dawley rats per time point were given 12 mg/kg fosgonimeton via SC injection. At 0.16, 0.5, and 1 h after dosing, animals were humanely killed and perfused with chilled saline. Brains were collected and dissected into the following brain regions: whole brain, striatum, olfactory bulb, hippocampus, cerebellum, cerebral cortex, and brainstem. Brain regions were homogenized and the exposures of fosgonimeton and fosgo-AM were determined by LC/MS/MS.

[4] = Plasma PK in rats after SC injection; assay type: in vivo, rat; conditions: SC
Procedure: Four male rats were treated with 10 mg/kg fosgo-AM in DMSO via SC injection. Blood was serially collected at 0.08, 0.25, 0.5, 1, 2, and 4 h after dosing. Plasma was obtained by centrifugation with 2% disodium ethylenediaminetetraacetic acid (EDTA) as an anticoagulant. Plasma samples were precipitated with acetonitrile containing internal standard, and the concentration of fosgo-AM was determined by LC/MS/MS.
This study was conducted as described in the “Fosgo-AM PK in Rats” section with the following changes: animals were given 12 mg/kg fosgonimeton in saline with 0.1% glycine via SC injection, and a dose-linear correction was applied to normalize the dose to 10 mg/kg for comparison with the fosgo-AM study. Sample concentrations of both fosgonimeton and fosgo-AM were determined.

Fosgonimeton PK in mice = assay type: in vivo, mouse; conditions: 0.75 mg/kg SC, first tested time point
Procedure: Three male BALBc mice were treated with 0.75 mg/kg fosgonimeton in saline with 0.1% glycine via SC injection. Blood was serially collected at 0.25, 0.5, 1, 2, and 4 h after dosing. Plasma was obtained by centrifugation with 2% disodium EDTA as an anticoagulant. Plasma samples were precipitated with acetonitrile containing internal standard, and the concentration of fosgonimeton and fosgo-AM was determined by LC/MS/MS.

ERK (Thr202/Tyr204) = experiment: Phospho-ERK HTRF assay in HEK293 cells; assay type: cell-based, human; conditions: HEK293, HGF 10 ng/mL, vs no HGF treatment
Text: To determine phosphoactivation status of the intracellular signaling molecules ERK (Thr202/Tyr204) or AKT (Ser473), we used homogenous time-resolved fluorescence (HTRF) kits to assess phosphorylation status based on the energy transfer between donor and acceptor phospho-ERK (pERK) or phospho-AKT (pAKT) antibodies. HTRF kit processing for pERK (Phospho-ERK [Thr202/Tyr204] cellular Advanced kit, #64AERPEG, Cisbio, Codolet, France) and pAKT (Phospho-AKT [Ser473] cellular kit, #64AKSPEG, Cisbio, Codolet, France) were carried out per manufacturer instructions. In brief, HEK293 cells were grown at 37 °C, 5% CO2 in DMEM + 10% FBS until approximately 80% confluent. Cells were seeded in polystyrene-treated 96-well cell culture plates at approximately 50,000 cells/well and cultured overnight in 50 µL serum-free growth media. […] Fluorescence emission at 2 different wavelengths (665 nm and 620 nm) were measured on an Envision plate reader (PerkinElmer, Waltham, Massachusetts), and the HTRF ratio of the acceptor and donor emission signals for each well was calculated as follows: HTRF ratio = (665 nm/620 nm) × 10,000. […] Data were assessed for normality (Shapiro–Wilk) and homoscedasticity (Brown-Forsythe). Statistical significance was determined by one-way analysis of variance (ANOVA) with Tukey’s multiple comparison post-test. […]

[5] = system: primary rat hippocampal neurons; experiment: Neurite outgrowth assay (beta-III tubulin staining); assay type: cell-based; conditions: HGF alone 5 ng/mL, 4 days, vs vehicle
Procedure: On day 0, rat hippocampal neurons from newborn pups were isolated and cultured in brain neuronal culture medium (neurobasal medium supplemented with 5% FBS, 2% B-27 supplement, and 0.003% gentamycin) at 37 °C under 5% CO2. At 1 day in vitro (DIV1), cells were transferred to a poly-D-lysine–coated 24-well plate at approximately 10,000 cells/well. Cells were then grown in […] of serum-free medium and treated with the following: 0.1% dimethyl sulfoxide (DMSO; vehicle), 10 nM dihydrotestosterone (positive control), 10 nM fosgo-AM, 1 nM fosgo-AM, 5 ng/ml HGF, or 5 ng/ml HGF + 1 nM fosgo-AM. All treatments contained a final concentration of 0.1% DMSO. For the neurite outgrowth assay, treatment media were refreshed on DIV3, and cells were processed for analysis on DIV4. For the synaptogenesis assay, treatment media were refreshed on DIV3 and DIV6, and cells were processed for analysis on DIV8. Processing for both the neurite outgrowth and the synaptogenesis assays was performed as follows: media were removed, and cells were fixed with 100% methanol for 20 min at RT before methanol was aspirated and each well was washed twice with Dulbecco’s phosphate-buffered saline (DPBS). Cells were permeabilized using 0.02% […] (ThermoFisher, Waltham, Massachusetts) in DPBS for 2 min at RT without shaking, and plates were blocked with 5% bovine serum albumin (BSA) in DPBS for 1 h at RT. Plates were then incubated overnight at 4 °C with gentle shaking with use of beta-III tubulin antibody (ab201740; Abcam, Boston, Massachusetts) to assess neurite outgrowth or with use of 1:500 rabbit anti–synaptobrevin-II antibody (Synaptic Systems, cat# 104 202, Göttingen, Germany) to assess synaptogenesis. After overnight incubation, plates were washed 3 times with DPBS and incubated for 1 h at RT with use of anti–rabbit immunoglobulin G–secondary antibody conjugated to Alexa Fluor 488 (Life Technologies, Carlsbad, California, 1:500). After 5 DPBS washes, coverslips were mounted on slides using fluorescent mounting medium (Golden Bridge International Labs, Bothell, Washington, cat# E19-s). Imaging was performed using the BX43 Olympus microscope driven by the standard “CellSens” software by Olympus. […] Ten images of single cells from a total of 2 assays were analyzed using NeuroJ plug-in for ImageJ to assess neurite outgrowth, as neurite length and the number of branches per neuron were counted for each cell. For the synaptogenesis assay, synaptic count (number of synapses) and synaptic strength (relative abundance of presynaptic vesicles per synapse as measured by synaptobrevin-II fluorescence intensity) were quantified for each cell. Data were assessed for normality (Shapiro–Wilk) and homoscedasticity (Brown-Forsythe). […]

MDCK cells = experiment: MDCK cell scatter behavior assay; assay type: cell-based, canine; conditions: HGF 40 ng/mL, 24 h
Procedure: Madin-Darby canine kidney (MDCK, ATCC CCL-34) cells were grown at 37 °C, 5% CO2 in Eagle’s Minimum Essential Medium (EMEM) + 10% FBS in T-75 flasks until 80% confluent. Cells were then plated at 1400 cells/well in black-walled, clear-bottom 96-well plates and grown at 37 °C under 5% CO2 for 24 h. Growth media were replaced by serum-free media for 2 h before treatment. Treatments containing HGF and fosgo-AM were made in serum-free media and applied in quintuplicates for 24 h at 37 °C under 5% CO2. Cells were then fixed in chilled 100% EtOH at 4 °C for 20 min and then stained with wheat germ agglutinin conjugated to CF488 (WGA488, Biotium, 29,022–1, Fremont, California) at […] in phosphate-buffered saline (PBS) for 30 min at RT to visualize whole-cell surfaces. Cultures were then imaged with an iCys instrument (iCyte, Thor Labs, Newton, New Jersey) and analyzed with the ImageJ (National Institutes of Health) particle count feature. Scattering behavior was quantified by normalizing particle counts against total stained area. […] Data were assessed for normality (Shapiro–Wilk) and homoscedasticity (Brown-Forsythe). The statistical difference from HGF alone was determined by one-way ANOVA with Dunnett’s multiple comparison post-test with an alpha value of 0.05 (Prism, GraphPad).

Question: Which results are given for `CCCCCC(=O)N[C@@H](Cc1ccc(OP(=O)(O)O)cc1)C(=O)N[C@H](C(=O)NCCCCCC(N)=O)[C@@H](C)CC` [fosgonimeton] (Hexanoyl-[pY]-Ile-[Ahx]-NH2)?
Answer: solubility in aqueous solutions [1]: greater than 70 mg/mL; percentage of recovery (spontaneous alternations) ([2]; 0.25 mg/kg SC once daily): 61.76%; percentage of recovery (spontaneous alternations) ([2]; 0.5 mg/kg SC once daily): 79.40%; percentage of recovery (spontaneous alternations) ([2]; 1 mg/kg SC once daily): 64.70%; percentage of recovery (spontaneous alternations) ([2]; 1.25 mg/kg SC once daily): 64.70%; percentage of spontaneous alternations vs LPS group ([2]; 0.25, 0.5, 1 and 1.25 mg/kg SC once daily): significantly ameliorated these deficits; detection in brain regions [3]: undetectable; fold higher fosgo-AM Cmax vs equivalent direct dose of fosgo-AM [4]: ~4 fold; systemic exposure of fosgo-AM vs equivalent direct dose of fosgo-AM [4]: higher systemic exposure; time of appearance of active compound fosgo-AM after fosgonimeton ([4]; first tested time point): ≤ 5 min; time of appearance of active compound fosgo-AM after fosgonimeton (Fosgonimeton PK in mice): ≤ 15 min

Question: For `CC12CC3CC(C)(C1)CC(N)(C3)C2` [memantine, reference compound], which “percentage of spontaneous alternations vs LPS group” value ([2]; 0.1 mg/kg I.P. once daily) is on record?
Answer: The value was “significantly prevented LPS-induced cognitive deficits”.

Question: What about the “percentage of recovery (spontaneous alternations)” value ([2]; positive control, 0.1 mg/kg I.P. once daily) of the same compound?
Answer: Its value is 76.40%.

Question: With “HGF: Recombinant HGF protein (R&D Systems), ligand of the MET receptor” as the compound, how does the pERK levels (ERK (Thr202/Tyr204)) read?
Answer: The pERK levels was “significantly increased pERK versus no HGF treatment”.

Question: And the “neurite length per cell” value [5]?
Answer: The value was “no significant differences compared with vehicle”.

Question: What about the cell scattering behavior (MDCK cells) of the same compound?
Answer: The cell scattering behavior was “significantly increased cell scattering behavior”.
